Laboratory results reported in patent US20020128228A1, “Compositions and methods for the treatment of cancer” (priority 2000, published 2002).
Where two headings read alike, the source gives them in different places.

What was measured:
[1] = system: malignant melanoma
[2] = after intravenous administration; cited from earlier work
[3] = single dose schedule, cited from earlier work

O=C1CCC(N2C(=O)c3ccccc3C2=O)C(=O)N1 (racemic) [thalidomide, 2-(2,6-dioxo-3-piperidinyl)-1H-isoindole-1,3(2H)-dione]
recurrence ([1]; single treatment with thalidomide continued for one year): only recurrence in the leg
metastases and adenopathy ([1]; thalidomide alone, maximum 200 mg/d, after dacarbazine was discontinued, additional 3 months): resolution of the metastases continued and virtually no adenopathy was detected

Cn1nnc2c(C(N)=O)ncn2c1=O [temozolomide, 8-carbamoyl-3-methyl-imidazo-[5.1.d]-1,2,3,5-tetrazin-4(3H)-one]
half life distribution (plasma, biexponential decline) [2]: 1.8 h
nausea and vomiting ([3]; dosages up to 700 mg/m^2): mild
nausea and vomiting ([3]; doses higher than 700 mg/m^2): Grade 4 toxicity
